The text below walks through data of patent US10807988B2, “3-((hetero-)aryl)-8-amino-2-oxo-1,3-diaza-spiro-[4.5]-decane derivatives” (Grünenthal GmbH, priority 2016, dated 2020).

The structures appear in SMILES notation. pKi: −log10 of the molar value.

In one experiment the target is human nociceptin/orphanin FQ peptide (hNOP) receptor (Homo sapiens (Human), UniProt P41146).
Experiment: not given
The format is binding.
Consider `CN1CCN(c2ncc(N3CC4(CCC(c5ccccc5)(N(C)CC5CCOC5)CC4)NC3=O)cn2)CC1` (single isomer, unassigned; enantiomer 1) [SC_3324, cis-3-[2-(4-Methyl-piperazin-1-yl)-pyrimidin-5-yl]-8-[methyl-(tetrahydro-furan-3-yl-methyl)-amino]-8-phenyl-1,3-diazaspiro[4.5]decan-2-one (enantiomer 1)], for which the “hNOP % inhibition at 1 μM” value was found to be 12%.
Turning to `CN1CCN(c2ncc(N3CC4(CCC(c5ccccc5)(N(C)CC5CCOC5)CC4)NC3=O)cn2)CC1` (single isomer, unassigned; enantiomer 2) [SC_3325, cis-3-[2-(4-Methyl-piperazin-1-yl)-pyrimidin-5-yl]-8-[methyl-(tetrahydro-furan-3-yl-methyl)-amino]-8-phenyl-1,3-diazaspiro[4.5]decan-2-one (enantiomer 2)], the “hNOP % inhibition at 10 μM” value was 53%@10 μM.
With `CNC1(c2ccccc2)CCC2(CC1)CN(c1ccccc1C(N)=O)C(=O)N2` (stereo not drawn) [SC_3119, cis-2-(8-Methylamino-2-oxo-8-phenyl-1,3-diazaspiro[4.5]decan-3-yl)-benzamide], the “hNOP % inhibition at 1 μM” value was 22%.
Take `CCNC1(c2ccccc2)CCC2(CC1)CN(c1ccccc1C(N)=O)C(=O)N2` (stereo not drawn) [SC_3125, trans-2-(8-Ethylamino-2-oxo-8-phenyl-1,3-diazaspiro[4.5]decan-3-yl)-benzamide]: the “hNOP % inhibition at 10 μM” value was determined as 3%@10 μM.
Take `CCNC1(c2ccccc2)CCC2(CC1)CN(c1ccccc1C(N)=O)C(=O)N2` (stereo not drawn) [SC_3126, cis--2-(8-Ethylamino-2-oxo-8-phenyl-1,3-diazaspiro[4.5]decan-3-yl)-benzamide]: the “hNOP % inhibition at 1 μM” value was 0%.
Same read-out and setting: the value for `CCN[C@]1(c2ccccc2)CC[C@@]2(CC1)CN(c1ccccc1C#N)C(=O)N2` [SC_3127, cis-2-(8-Ethylamino-2-oxo-8-phenyl-1,3-diazaspiro[4.5]decan-3-yl)-benzonitrile] was 0%; that for `CCN[C@]1(c2ccccc2)CC[C@]2(CC1)CN(c1ccccc1C#N)C(=O)N2` [SC_3128, cis-2-(8-Ethylamino-2-oxo-8-phenyl-1,3-diazaspiro[4.5]decan-3-yl)-benzonitrile] was 0%.
For the compound `CCNC1(c2ccccc2)CCC2(CC1)CN(c1ccc(C#N)cc1OC)C(=O)N2` (stereo not drawn) [SC_3134, trans-4-(8-Ethylamino-2-oxo-8-phenyl-1,3-diazaspiro[4.5]decan-3-yl)-3-methoxy-benzonitrile], the “hNOP % inhibition at 10 μM” value amounted to 3%@10 μM.
Take `CCNC1(c2ccccc2)CCC2(CC1)CN(c1ccc(C#N)cc1OC)C(=O)N2` (stereo not drawn) [SC_3135, cis-4-(8-Ethylamino-2-oxo-8-phenyl-1,3-diazaspiro[4.5]decan-3-yl)-3-methoxy-benzonitrile]: the “hNOP % inhibition at 1 μM” value worked out at 1%.
Consider `CCN[C@]1(c2ccccc2)CC[C@]2(CC1)CN(c1cnc(C#N)nc1OC)C(=O)N2` [SC_3143, cis-5-(8-Ethylamino-2-oxo-8-phenyl-1,3-diazaspiro[4.5]decan-3-yl)-4-methoxy-pyrimidine-2-carbonitrile], for which the “hNOP % inhibition at 1 μM” value is reported as 0%.
Same read-out and setting: in the case of `CCN[C@]1(c2ccccc2)CC[C@@]2(CC1)CN(c1cnc(C#N)nc1OC)C(=O)N2` [SC_3144, trans-5-(8-Ethylamino-2-oxo-8-phenyl-1,3-diazaspiro[4.5]decan-3-yl)-4-methoxy-pyrimidine-2-carbonitrile] it was 0%; in that of `CN(C)[C@]1(Cc2ccccc2)CC[C@@]2(CC1)CN(c1cnc(N3CCOCC3)nc1)C(=O)N2` [SC_3160, trans-8-Benzyl-8-dimethylamino-3-(2-morpholin-4-yl-pyrimidin-5-yl)-1,3-diazaspiro[4.5]decan-2-one], 4%; in that of `CN(C)C1(Cc2ccccc2)CCC2(CC1)CN(c1cnc(N3CCOCC3)nc1)C(=O)N2` (stereo not drawn) [SC_3161, cis-8-Benzyl-8-dimethylamino-3-(2-morpholin-4-yl-pyrimidin-5-yl)-1,3-diazaspiro[4.5]decan-2-one], 2%.
`CN(C)C1(Cc2ccccc2)CCC2(CC1)CN(c1cnc(C(F)(F)F)nc1)C(=O)N2` (stereo not drawn) [SC_3165, cis-8-Benzyl-8-dimethylamino-3-[2-(trifluoromethyl)-pyrimidin-5-yl]-1,3-diazaspiro[4.5]decan-2-one]: the “hNOP % inhibition at 1 μM” value stood at 4%.
`CN(C)[C@]1(Cc2ccccc2)CC[C@@]2(CC1)CN(c1cnc(C(F)(F)F)nc1)C(=O)N2` [SC_3166, trans-8-Benzyl-8-dimethylamino-3-[2-(trifluoromethyl)-pyrimidin-5-yl]-1,3-diazaspiro[4.5]decan-2-one]: the “hNOP % inhibition at 1 μM” value came out at 3%.
Consider `Cc1cc(C(F)(F)F)ncc1N1C[C@]2(CC[C@@](Cc3ccccc3)(N(C)C)CC2)NC1=O` [SC_3174, trans-8-Benzyl-8-dimethylamino-3-[4-methyl-6-(trifluoromethyl)-pyridin-3-yl]-1,3-diazaspiro[4.5]decan-2-one], for which the “hNOP % inhibition at 1 μM” value is 3%.
Same read-out and setting: in the case of `Cc1cc(C(F)(F)F)ncc1N1CC2(CCC(Cc3ccccc3)(N(C)C)CC2)NC1=O` (stereo not drawn) [SC_3215, cis-8-Benzyl-8-dimethylamino-3-[4-methyl-6-(trifluoromethyl)-pyridin-3-yl]-1,3-diazaspiro[4.5]decan-2-one] it was 0%; in that of `CN(C)C1(c2nc3ccccc3n2C)CCC2(CC1)CN(c1cnc(C(F)(F)F)nc1)C(=O)N2` (stereo not drawn) [SC_3219, cis-8-Dimethylamino-8-(1-methyl-1H-benzoimidazol-2-yl)-3-[2-(trifluoromethyl)-pyrimidin-5-yl]-1,3-diazaspiro[4.5]decan-2-one], 0%.
Still for that read-out and setting: the value for `CN(CC1CCOC1)[C@]1(c2ccccc2)CC[C@]2(CC1)CN(c1cnc(N3CCOCC3)nc1)C(=O)N2` (stereo partly drawn) [SC_3304, cis-8-[Methyl-(tetrahydro-furan-3-yl-methyl)-amino]-3-(2-morpholin-4-yl-pyrimidin-5-yl)-8-phenyl-1,3-diazaspiro[4.5]decan-2-one] was 9%; that for `CN(CC1CCOC1)[C@]1(c2ccccc2)CC[C@]2(CC1)CN(c1cnc(N3CCOCC3)nc1)C(=O)N2` (stereo partly drawn) [SC_3305, cis-8-[Methyl-(tetrahydro-furan-3-yl-methyl)-amino]-3-(2-morpholin-4-yl-pyrimidin-5-yl)-8-phenyl-1,3-diazaspiro[4.5]decan-2-one] was 10%.

The target in a further experiment is human mu-opioid peptide (hMOP) receptor (Homo sapiens (Human), UniProt P35372). As to the kind of experiment: Human mu-opioid peptide (hMOP) receptor binding assay (SPA, [3H]naloxone displacement).
Chain of human mu-opioid peptide (hMOP) receptor (P35372 whole entry): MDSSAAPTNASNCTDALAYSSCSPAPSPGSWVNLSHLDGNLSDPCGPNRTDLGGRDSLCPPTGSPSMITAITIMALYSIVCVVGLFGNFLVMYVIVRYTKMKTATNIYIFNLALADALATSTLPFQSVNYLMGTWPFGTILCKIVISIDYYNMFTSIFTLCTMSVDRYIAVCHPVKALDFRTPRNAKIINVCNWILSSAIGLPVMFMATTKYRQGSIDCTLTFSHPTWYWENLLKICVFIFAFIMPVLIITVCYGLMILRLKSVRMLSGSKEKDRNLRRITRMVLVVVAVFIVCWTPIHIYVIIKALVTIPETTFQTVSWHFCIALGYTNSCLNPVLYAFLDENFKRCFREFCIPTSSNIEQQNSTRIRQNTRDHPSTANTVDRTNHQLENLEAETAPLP
The term pKi denotes the negative decadic logarithm of the Ki, by convention in mol/L. `CN(C)[C@]1(c2ccccc2)CC[C@]2(CC1)CN(c1cnc(C#N)nc1)C(=O)N2CCO` [SC_3025, cis-5-[8-Dimethylamino-1-(2-hydroxy-ethyl)-2-oxo-8-phenyl-1,3-diazaspiro[4.5]decan-3-yl]-pyrimidine-2-carbonitrile] gave a pKi of 5.82.
For the compound `CNC1(c2ccccc2)CCC2(CC1)CN(c1ccccc1C(N)=O)C(=O)N2` (stereo not drawn) [SC_3119, cis-2-(8-Methylamino-2-oxo-8-phenyl-1,3-diazaspiro[4.5]decan-3-yl)-benzamide], the “hMOP % inhibition at 1 μM” value came out at 10%.
Turning to `CN(C)C1(c2nc3ccccc3n2C)CCC2(CC1)CN(c1cnc(C(F)(F)F)nc1)C(=O)N2` (stereo not drawn) [SC_3219, cis-8-Dimethylamino-8-(1-methyl-1H-benzoimidazol-2-yl)-3-[2-(trifluoromethyl)-pyrimidin-5-yl]-1,3-diazaspiro[4.5]decan-2-one], the “hMOP % inhibition at 1 μM” value is 1%.
With `CN(CC1CCOC1)[C@]1(c2ccccc2)CC[C@]2(CC1)CN(c1cnc(N3CCOCC3)nc1)C(=O)N2` (stereo partly drawn) [SC_3304, cis-8-[Methyl-(tetrahydro-furan-3-yl-methyl)-amino]-3-(2-morpholin-4-yl-pyrimidin-5-yl)-8-phenyl-1,3-diazaspiro[4.5]decan-2-one], the “hMOP % inhibition at 1 μM” value worked out at 4%.
With `CN(CC1CCOC1)[C@]1(c2ccccc2)CC[C@]2(CC1)CN(c1cnc(N3CCOCC3)nc1)C(=O)N2` (stereo partly drawn) [SC_3305, cis-8-[Methyl-(tetrahydro-furan-3-yl-methyl)-amino]-3-(2-morpholin-4-yl-pyrimidin-5-yl)-8-phenyl-1,3-diazaspiro[4.5]decan-2-one], the “hMOP % inhibition at 1 μM” value is on record as 0%.
